This passage reports growth percent and viability results from paper PMC11769294, “(E)-1-(3-(3-Hydroxy-4-Methoxyphenyl)-1-(3,4,5-Trimethoxyphenyl)allyl)-1H-1,2,4-Triazole and Related Compounds: Their Synthesis and Biological Evaluation as Novel Antimitotic Agents Targeting Breast Cancer” (Pharmaceuticals, 2025).

For one assay, the system named is DU-145 (Prostate Cancer). Put plainly: NCI60 screen (SRB). It counts as cell-based, human. Particulars: one dose 10 µM, 48 h.
The test system of a further assay is M14 (Melanoma). Put plainly: NCI60 screen (SRB). It is filed as cell-based, human. The following applies: one dose 10 µM, 48 h.
The test system of another assay is OVCAR-4 (Ovarian Cancer). Nature of the assay: NCI60 screen (SRB). It is filed as cell-based, human. The following applies: one dose 10 µM, 48 h.
Another assay concerns 786-0 (Renal Cancer). Put plainly: NCI60 screen (SRB). It counts as cell-based, human. Particulars: one dose 10 µM, 48 h.
The next assay deals with A498 (Renal Cancer). Nature of the assay: NCI60 screen (SRB). It is filed as cell-based, human. Particulars: one dose 10 µM, 48 h.
The next assay deals with MCF7 (Breast Cancer). Nature of the assay: NCI60 screen (SRB). It counts as cell-based, human. Particulars: one dose 10 µM, 48 h.
In the next assay the test system is HCT-15 (Colon Cancer). Put plainly: NCI60 screen (SRB). Particulars: one dose 10 µM, 48 h. It counts as cell-based, human.
The next assay has as its system UACC-257 (Melanoma). Nature of the assay: NCI60 screen (SRB). It is filed as cell-based, human. Particulars: one dose 10 µM, 48 h.
The test system of assay [1] is NCI-H23 (Non-Small Cell Lung Cancer). Put plainly: NCI60 screen (SRB). It counts as cell-based, human. The following applies: one dose 10 µM, 48 h.
The subject of a further assay is K-562 (Leukemia). Nature of the assay: NCI60 screen (SRB). It is filed as cell-based, human. The following applies: one dose 10 µM, 48 h.
The next assay has as its system CCRF-CEM (Leukemia). Put plainly: NCI60 screen (SRB). Particulars: one dose 10 µM, 48 h. It is filed as cell-based, human.
The subject of a further assay is BT-549 (Breast Cancer). Nature of the assay: NCI60 screen (SRB). It counts as cell-based, human. Particulars: one dose 10 µM, 48 h.
In assay [2] the test system is NCI-H226 (Non-Small Cell Lung Cancer). Put plainly: NCI60 screen (SRB). The following applies: one dose 10 µM, 48 h. It is filed as cell-based, human.
The next assay concerns LOX IMVI (Melanoma). Put plainly: NCI60 screen (SRB). Particulars: one dose 10 µM, 48 h. It counts as cell-based, human.
Assay [3] concerns MCF-7 breast cancer cells. Put plainly: alamarBlue cell viability assay. It is filed as cell-based. Particulars: Homo sapiens, MCF7, MCF-7, 72 h, read-out: viable cells. Here is the method:
Figure 5 Preliminary cell viability data for Series 1: (A) compounds 22a–22g and chalcone 20b and Series 2: (B) compounds 23a–e and chalcone 20b in MCF-7 breast cancer cells. Cell proliferation of MCF-7 cells was determined with an alamarBlue assay (seeding density 2.5 × 10^4 cells/mL per well for 96-well plates). Compound concentrations of either 1 or 0.1 μM for 72 h were used to treat the cells (in triplicate) with control wells containing vehicle ethanol (1% v/v). The mean value ± SEM for three independent experiments is shown. The positive controls used are CA-4 and phenstatin (1.0 μM and 0.1 μM). Statistical analysis was performed using One-way ANOVA with the Sidak multiple comparison test (***, p < 0.001).
HL-60 cells were suspension cells and the seeding density for the viability assay was 25,000 cells/mL. MCF-7 cells (adherent) were cultured in Minimum Essential Media (MEM) with GlutaMAX™-I, supplemented with 1% (v/v) non-essential amino acids, 10% (v/v) fetal bovine serum (FBS), purchased from BD Biosciences (Edmund Halley Road, Oxford, UK), and 1% (v/v) penicillin/streptomycin 5000 U/mL. The MCF-7 cells used in the screening of the compounds during these experiments were mycoplasma-free. The seeding density of MCF-7 in the viability assay was 25,000 cells/mL and 50,000 cells/mL in the FACS assay. Normal breast cells (MCF-10A) (adherent) were cultured in Dulbecco’s Modified Eagle Medium: Nutrient Mixture F-12 (DMEM/F12; Gibco) supplemented with 5% horse serum (Invitrogen, Waltham, MA, USA), 20 ng/mL epidermal growth factor (Merck Millipore, Burlington, MA, USA), 0.5 μg/mL hydrocortisone (Sigma, Kanagawa, Japan), 100 ng/mL cholera toxin (Sigma), 10 μg/mL insulin (Sigma), and penicillin/streptomycin 5000 U/mL (1%) (Gibco, Waltham, MA, USA). […] MDA-MB-231 cells were cultured in Dulbecco’s Modified Eagle Medium, which was supplemented with 10% (v/v) fetal bovine serum (FBS) and 1% (v/v) penicillin/streptomycin 5000 U/mL. When not in use, all cells were kept in liquid nitrogen and frozen in a freezing media made of 90% FBS and 10% DMSO. All cells were grown in an atmosphere of 5% CO2/95% air in T75 culture flasks. The media was changed every 2–3 days and media was always prewarmed to 37 °C. All were sub-cultured every 3–4 days by trypsinization using TrypLE™ Express enzyme when confluence was reached to allow growth, prevent excessive cell death, and minimize the risk of infections derived by over-confluence. For the cell viability assay, the number of cells per milliliter was 25,000 cells/mL while the FACS assay utilized 50,000 cells/mL. Cells were maintained at 37 °C in 5% CO2 in a humidified incubator.
The biochemical assays were performed in triplicate and on at least three independent occasions to facilitate the determination of mean values. For the viability assay, cells were grown until 80% confluent. Adherent cells such as MCF-7, MDA-MB-231, and MCF-10A were trypsinized to detach them from the flask, counted as previously described, and seeded in 96 well plates with a seeding density of 25,000 cells /mL (200 µL of suspension in each well so that the final number of cells per well was 5000) and 1 × 10^4 cells/well seeding density for suspension HL-60 cells. Adherent cells were incubated for 24 h after being seeded in the 96 well plate and treated on the following day, while suspension cells were treated on the same day of the seeding. In both cases, the incubation time after the treatment with the drug was 72 h. After 68 h incubation, the AlamarBlue was added (20 µL in each well) and the incubation time was completed. After 72 h, the change in color was measured by spectrofluorimetry at an excitation wavelength of 544 nm and emission wavelength of 590 nm. AlamarBlue is a cell viability indicator containing a compound called resazurin. AlamarBlue is water soluble, stable in culture media, non-toxic, and is permeable through the cell membrane. […]

Assay [4] concerns HOP-62 (Non-Small Cell Lung Cancer). Nature of the assay: NCI60 screen (SRB). It is filed as cell-based, human. Particulars: one dose 10 µM, 48 h.
The test system of the next assay is ACHN (Renal Cancer). Nature of the assay: NCI60 screen (SRB). It counts as cell-based, human. Particulars: one dose 10 µM, 48 h.
The test system of a further assay is PC-3 (Prostate Cancer). Nature of the assay: NCI60 screen (SRB). It is filed as cell-based, human. Particulars: one dose 10 µM, 48 h.
The next assay deals with OVCAR-5 (Ovarian Cancer). Put plainly: NCI60 screen (SRB). It is filed as cell-based, human. The following applies: one dose 10 µM, 48 h.
The subject of the next assay is RPMI-8226 (Leukemia). Put plainly: NCI60 screen (SRB). The following applies: one dose 10 µM, 48 h. It is filed as cell-based, human.

Molecules are shown by their SMILES. Where “and” joins values, the source holds several entries; their conditions need not be identical. Equal entries are not always repeated.

With `COc1ccc(/C=C/C(c2cc(OC)c(OC)c(OC)c2)n2ccnc2)cc1O` (stereo not drawn) [Compound 23b, (E)-5-(3-(1H-Imidazol-1-yl)-3-(3,4,5-trimethoxyphenyl)prop-1-en-1-yl)-2-methoxyphenol], the growth percent in the assay with DU-145 (Prostate Cancer) was 37.76%; with M14 (Melanoma) it was 18.61%; in the assay on OVCAR-4 (Ovarian Cancer), 78.81%; in the assay with 786-0 (Renal Cancer), 34.04%; with A498 (Renal Cancer), 67.46%; in the assay with MCF7 (Breast Cancer), 17.9% and 17.87%. Also, the growth percent in the assay with HCT-15 (Colon Cancer) is 24.91%; in the assay on UACC-257 (Melanoma), 34.19%; in assay [1] it was 55.69%; with K-562 (Leukemia), 13.63%; in the assay on CCRF-CEM (Leukemia), 37.13%; with BT-549 (Breast Cancer) it was 44.34%. Further, the growth percent in assay [2] was determined as 88.36%; in the assay with LOX IMVI (Melanoma), 46.09%; in assay [4] it was 47.25%; with ACHN (Renal Cancer), 46.34%; in the assay on PC-3 (Prostate Cancer) it was 25.28%; with OVCAR-5 (Ovarian Cancer), 102.8%. The growth percent in the assay on RPMI-8226 (Leukemia) came to 15.14%. Moreover, the viability at 0.1 µM in assay [3] (0.1 μM) is 75%. The viability at 1 µM in assay [3] (1 μM) amounted to 74%.
